By IC50 is commonly meant the concentration at which inhibition is half-maximal. A high value points to weaker potency in that assay. The melting point is the temperature, or range, at which the solid turns liquid. By Ki is commonly meant a measure of affinity in units of concentration, obtained from inhibition or displacement. Low readings indicate a stronger hold on the target, high ones a looser hold on the target.

Results on 23 molecules are retold here after patent US6864253B2, “Benzo[4,5]thieno[2,3-c]pyridine and Benzo[4,5]furo[2,3-c]pyridine Derivatives Useful as Inhibitors of Phosphodiesterase” (Orth-McNeil Pharmaceutical, Inc., priority 2000, dated 2005).

The structures appear in SMILES notation. Read-outs that look alike come from different tables or passages of the source.

The target in data set [1] is T1, PDEV (Homo sapiens, UniProt O76074).
T1 construct: rabbit or human tissues were homogenized in an ice-cold buffer solution; from tissue; host or cells: human tissue
The data set can be described thus: Cyclic nucleotide phosphodiesterase (PDE) assay, inhibition of PDEV isolated from human tissue. Particulars: footnote a: tested using human tissue; for IC50: PDEV. Format: biochemical. Here is the method:
PDEV was isolated from rabbit and human tissues according to the protocol described by Boolell et al. (Boolell, M., Allen, M. J., Ballard, S. A., Ge[o-Attee, S., Muirhead, G. J., Naylor, A. M., Osterloh, I. H., and Gingell, C) in International Journal of Impotence Research 1996 8, 47-52 with minor modifications.
Briefly, rabbit or human tissues were homogenized in an ice-cold buffer solution containing 20 mM HEPES (pH 7.2), 0.25M sucrose, 1 mM EDTA, and 1 mM phenylmethylsulphonyl fluoride (PMSF). The homogenates were centrifuged at 100,000 g for 60 minutes at 4° C. The supernatant was filtered through […] filter and loaded on a Pharmacia Mono Q anion exchange column (1 ml bed volume) that was equilibrated with 20 mM HEPES, 1 mM EDTA and 0.5 mM PMSF. After washing out unbound proteins, the enzymes were eluted with a linear gradient of 100-600 mM NaCl in the same buffer (35 to 50 ml total, depending on the tissue. Enzymes from the skeletal muscle, corpus cavernosum, retina, heart and platelet were eluted with 35, 40, 45, 50, and 50 ml respectively.) The column was run at a flow rate of 1 ml/min and 1 ml fractions were collected. The fractions comprising various PDE activities were pooled separately and used in later studies.
The PDE assay was carried out as described by Thompson and Appleman in Biochemistry 1971 10, 311-316 with minor modifications, as noted below.
The assays were adapted to a 96-well format. The enzyme was assayed in 5 mM MgCl2, 15 mM Tris HCl (pH 7.4), 0.5 mg/ml bovine serum albumin, 1 μM cGMP or cAMP, 0.1 μCi [^3H]-cGMP or [^3H]-cAMP, and 2-10 μl of column elution. The total volume of the assay was 100 μl. The reaction mixture was incubated at 30° C. for 30 minutes. The reaction was stopped by boiling for 1 minute and then cooled down on ice. The resulting [^3H] 5′-mononucleotides were further converted to uncharged [^3H]-nucleosides by adding 25 μl 1 mg/ml snake venom (Ophiophagus hannah) and incubating at 30° C. for 10 minute. The reaction was stopped by the addition of 1 ml Bio-Rad AG1-X2 resin slurry (1:3). All the charged nucleotides were bound by the resin and only the uncharged [^3H]-nucleosides remained in the supernatant after centrifuging. An aliquot of 200 μl was taken and counted by liquid scintillation. PDE activity was expressed as pmol cyclic nucleotide hydrolyzed/min/ml of enzyme preparation.
Inhibitor studies were carried out in assay buffer with a final concentration of 10% DMSO. Under these conditions, the hydrolysis of product increased with time and enzyme concentration in a linear fashion.

In data set [2] the target is T2, PDEV (Oryctolagus cuniculus, UniProt G1SX67). The data set can be described thus: Cyclic nucleotide phosphodiesterase (PDE) assay, inhibition of PDEV isolated from rabbit tissue. The following applies: 10 μM test compound, rabbit PDEV. The data set is classed as biochemical. In short, it runs like this: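 PDEV came from rabbit tissue homogenate, using Mono Q anion-exchange fractions. Reactions used 1 μM cGMP or cAMP with [3H]-tracer, 5 mM MgCl2 and Tris pH 7.4 at 30 °C for 30 min; snake venom converted product to [3H]-nucleosides, read by scintillation after resin separation. Inhibitors ran in 10% DMSO final.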

Data set [3] deals with T2, PDEV. The data set can be described thus: In vitro determination of Ki for phosphodiesterase inhibitors (IC50/Ki, 30 nM 3H-cGMP). The data set is classed as biochemical. The following applies: printed in the % INH column as Ki value.
Experimental: The assay was adapted to a 96-well format. Phosphodiesterase was assayed in 5 mM MgCl2, 15 mM Tris HCl (pH 7.4), 0.5 mg/ml bovine serum albumin, 30 nM ^3H-cGMP and test compound at various concentrations. […] For all measurements, the test compound was dissolved and diluted in 100% DMSO (2% DMSO in assay). The total volume of the assay was 100 μl. The reaction mixture was incubated at 30° C. for 90 minutes. The reaction was stopped by boiling for 1 minute and then immediately cooled by transfer to an ice bath. To each well was then added 25 μl 1 mg/ml snake venom (Ophiophagus hannah) and the reaction mixture incubating at 30° C. for 10 minute. The reaction was stopped by the addition of 1 ml Bio-Rad AG1-X2 resin slurry (1:3). An aliquot of 200 μl was taken and counted by liquid scintillation.
The % inhibition of the maximum substrate conversion (by the enzyme in the absence of inhibitor) was calculated for each test compound concentration. Using GraphPad Prism′s nonlinear regression analysis (sigmoidal dose response), the % inhibition vs log of the test compound concentration was plotted to determine the IC50. Under conditions where substrate concentration <<Km of the enzyme (Km=substrate concentration at which half of the maximal velocity of the enzyme is achieved), Ki is equivalent to the IC50 value. […]
Data set [4] has as its system erectile dysfunction. The following applies: cited from earlier work.

For the molecule `c1ccc2[nH]c(N3CCc4c([nH]c5ccccc45)C3c3ccc4c(c3)OCO4)nc2c1` (stereo not shown) [Cmpd 172], in data set [1] (10 μM test compound), the “% INH @ 10 μM” value was 44^a %. In data set [1], `COc1ccc(-c2cnc(N3CC(=O)c4c([nH]c5ccccc45)C3c3ccc4c(c3)OCO4)nc2)cc1OC` (stereo not shown) [Cmpd 157] came in with an IC50 of 8.7 nM. On the same count and under the same terms, in the case of `COc1ccc(-c2cnc(N3CC(=O)c4c([nH]c5ccccc45)C3c3ccc4c(c3)OCO4)nc2)cc1` (stereo not shown) [Cmpd 162] it was 24 nM. On to `COc1ccc(-c2cnc(N3CCc4c([nH]c5ccccc45)C3c3ccc4c(c3)OCO4)nc2)cc1OC` (stereo not drawn) [Cmpd 7, 1-(3,4-Methylenedioxyphenyl)-2-[5-(3,4-dimethoxyphenyl)pyrimidin-2-yl]-2,3,4,9-tetrahydro-1H-β-carboline], for which the melting point was in the range of 173 to 175 °C. In addition, the inhibition at 10 µM in data set [2] (read-out: % Inh @ 10 μM (rabbit)) came to 91%. With `Cc1ncc(-c2cnc(N3CCc4c([nH]c5ccccc45)C3c3ccc4c(c3)CCO4)nc2)n1C` (stereo not drawn) [Cmpd 190, 1-(2,3-Dihydro-benzofuran-5-yl)-2-[5-(2,3-dimethyl-3H-imidazol-4-yl)-pyrimidin-2-yl]-2,3,4,9-tetrahydro-1H-β-carboline], the Ki in data set [3] stood at 14.2 nM. This lies in the double-digit nanomolar range. On to `COc1ccc(-c2cnc(N3CCc4c([nH]c5ccccc45)C3c3ccc4c(c3)OCCO4)nc2)cc1` (stereo not shown) [Cmpd 184], for which, in data set [1], the IC50 was 640 nM. That is a sub-micromolar value. In data set [1], `COc1ccc(-c2cnc(N3CCc4c([nH]c5ccccc45)C3c3ccc4c(c3)CCO4)nc2)cc1` (stereo not shown) [Cmpd 174] had an IC50 of 150 nM. The molecule `c1cnc(N2CCc3c([nH]c4ccccc34)C2c2ccc3c(c2)OCO3)nc1` (stereo not shown) [Cmpd 168] displayed a concentration for half-maximal inhibition (IC50) in data set [1] of 2150 nM. In turn, `c1ccc(-c2ccc(N3CCc4c([nH]c5ccccc45)C3c3ccc4c(c3)CCO4)nc2)nc1` (stereo not drawn) [Cmpd 191, 2-[2,3′]Bipyridinyl-6′-yl-1-(2,3-dihydro-benzofuran-5-yl)-2,3,4,9-tetrahydro-1H-β-carboline] had a Ki in data set [3] of 0.69 nM.

Turning to `Cc1ccc(-c2ccc(C(=O)N3CCc4c([nH]c5ccccc45)C3c3ccc4c(c3)OCO4)o2)c([N+](=O)[O-])c1` (stereo not shown) [Cmpd 53], in data set [2], the “% Inh @ 10 μM (rabbit)” value worked out at 85%. On the same count and under the same terms, in the case of `CN(C)CCNC(=O)C1Cc2c([nH]c3ccccc23)C(c2ccc3c(c2)OCO3)N1C(=O)c1ccc(-c2cccc(C(F)(F)F)c2)o1` (stereo not shown) [Cmpd 69] it was 21%; in that of `CN(C)CCCCn1c2c(c3ccccc31)CCN(C(=O)c1ccc(-c3cccc(C(F)(F)F)c3)o1)C2c1ccc2c(c1)OCO2` (stereo not shown) [Cmpd 34], 67%; in that of `O=C(c1cc2ccccc2o1)N1CCc2c([nH]c3ccccc23)C1c1ccc2c(c1)OCO2` (stereo not shown) [Cmpd 16], 88%. On the same count and under the same terms, in the case of `COC(=O)C1Cc2c([nH]c3ccccc23)C(c2ccc3c(c2)OCO3)N1C(=O)c1ccc(-c2cccc([N+](=O)[O-])c2)o1` (stereo not shown) [Cmpd 73] it was 20%.

With `CN(C)CCn1c2c(c3ccccc31)CCN(c1ncc(-c3ccc(Cl)cc3)cn1)C2c1ccc2c(c1)OCO2` (stereo not shown) [Cmpd 4], in data set [2], the “% Inh @ 10 μM (rabbit)” value is 94%. Consider `CCCc1nn(C)c2c(=O)[nH]c(-c3cc(S(=O)(=O)N4CCN(C)CC4)ccc3OCC)nc12` [sildenafil, 5-[2-ethoxy-5-(4-methylpiperazin-1-ylsulphonyl)phenyl]-1-methyl-3-n-propyl-6,7-dihydro-1H-pyrazolo[4,3-d]pyrimidin-7-one], for which the “improved sexual function, share of men” value in data set [4] (men who suffer from ED of psychogenic or organic etiology) is listed as “about 70%”. For the same molecule, in data set [4] (patients who had undergone a radical prostatectomy, 15% on placebo), the “improved erections, share of patients” value was 43%. Regarding `COc1ccc(-c2cnc(N3CCc4c(n(CCN5CCCC5)c5ccccc45)C3c3ccc4c(c3)OCO4)nc2)cc1` (stereo not shown) [Cmpd 148], in data set [2] (read-out: % INH @ 10 μM (rabbit)), the inhibition at 10 µM was found to be 66%.

With `COc1ccc(C2c3[nH]c4ccccc4c3CCN2C(=O)c2cnn(-c3ccccc3)c2C(F)(F)F)cc1` (stereo not shown) [Cmpd 130], the “% Inh @ 10 μM (rabbit)” value in data set [2] amounted to 45%.

Turning to `CN(C)CCn1c2c(c3ccccc31)CCN(C(=O)c1ccc(-c3ccc(Cl)cc3[N+](=O)[O-])o1)C2c1ccc2c(c1)OCO2` (stereo not shown) [Cmpd 40], in data set [2], the “% Inh @ 10 μM (rabbit)” value worked out at 78%. With `Cc1ccc(C2c3[nH]c4ccccc4c3CCN2C(=O)c2cnn(-c3ccccc3)c2C(F)(F)F)cc1C` (racemic) [Cmpd 119], the “% Inh @ 10 μM (rabbit)” value in data set [2] is on record as 28%. Regarding `c1ccc(-c2cnc(N3CCc4c([nH]c5ccccc45)C3c3ccc4c(c3)OCO4)nc2)nc1` (stereo not shown) [Cmpd 183], the half-maximal inhibitory concentration (IC50) in data set [1] is 122 nM. As for `O=C(c1ccc(-c2ccc(Cl)cc2)o1)N1CCc2c(sc3ccccc23)C1c1ccc2c(c1)OCO2` (stereo not shown) [Cmpd 77], the “% Inh @ 10 μM (rabbit)” value in data set [2] is 58%. `O=C(c1ccc(-c2cccc([N+](=O)[O-])c2)o1)N1CCc2c(sc3ccccc23)C1c1ccc2c(c1)OCO2` (stereo not shown) [Cmpd 76]: the “% Inh @ 10 μM (rabbit)” value in data set [2] stood at 27%.
